Source: patent US12649980B2, “Three-dimensional surface for protein and small molecule microarrays” (The Johns Hopkins University, priority 2019, dated 2026)

Legend:
A549 = assay: Alamar blue cell proliferation assay, A549; format: cell-based, human; details: A549, 72 h; read-out: IC50 Assay B (Alamar blue cell proliferation)
Experimental: (§1) The effects of RgA on cell growth, survival, and cell death was then determined. […] Treatment with 5 μM of RgA caused an increase in G1 phase by approximately 23% in comparison to control and approximately 7% and 17% decreases in cells in S and G2/M phases, respectively. The induction in G1 phase cell cycle arrest by RgA is dose-dependent (FIG. 5A, FIG. 16). […] Jones and Thompson, Genes Dev. 2009, 23, 537-548. […] The IC50 values of RgA against several human cancer cell lines also was determined using the alamar blue cell proliferation assay.
(§2) Cells were seeded into a 96-well plate (Costar) in 180 μL culture media. After an overnight recovery, drugs were added and incubated for 72 h. After drug incubation, cells were added with 20 μL of alamar blue reagent and the plates were incubated at 37° C. for 6 h before reading the fluorescence (544 nm Ex/590 nm Em) with a plate reader. GraphPad Prism (v4.03) software was used to determine IC50 values using a four parameter logistic regression.

PANC10.05 = assay: Alamar blue cell proliferation assay, PANC10.05; format: cell-based, human; details: PANC 10.05, 72 h; read-out: IC50 Assay B (Alamar blue cell proliferation)
Experimental: as §1, §2

FKBP12 = FKBP12 (Homo sapiens, UniProt P62942); assay: peptidyl prolyl cis-trans isomerase activity inhibition, FKBP12; format: biochemical; details: inhibition of prolyl isomerase activity
Sequence of FKBP12 (P62942 whole entry, species assumed): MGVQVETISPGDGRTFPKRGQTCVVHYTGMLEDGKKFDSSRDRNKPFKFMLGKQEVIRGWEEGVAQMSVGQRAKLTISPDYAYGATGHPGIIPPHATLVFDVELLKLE

FKBP25 = FKBP25 (Homo sapiens, UniProt Q00688); assay: peptidyl prolyl cis-trans isomerase activity inhibition, FKBP25; format: biochemical; details: inhibition of prolyl isomerase activity
Sequence of FKBP25 (Q00688 whole entry, species assumed): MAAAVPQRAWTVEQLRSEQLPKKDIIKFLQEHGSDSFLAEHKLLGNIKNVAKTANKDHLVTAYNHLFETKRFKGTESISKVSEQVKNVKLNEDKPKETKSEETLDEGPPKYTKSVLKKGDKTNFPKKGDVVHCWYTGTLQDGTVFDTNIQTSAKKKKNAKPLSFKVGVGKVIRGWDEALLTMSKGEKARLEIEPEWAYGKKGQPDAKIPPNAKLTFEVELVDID

FKBP52 = FKBP52 (Homo sapiens, UniProt Q02790); assay: peptidyl prolyl cis-trans isomerase activity inhibition, FKBP52; format: biochemical; details: inhibition of prolyl isomerase activity
Sequence of FKBP52 (Q02790 whole entry, species assumed): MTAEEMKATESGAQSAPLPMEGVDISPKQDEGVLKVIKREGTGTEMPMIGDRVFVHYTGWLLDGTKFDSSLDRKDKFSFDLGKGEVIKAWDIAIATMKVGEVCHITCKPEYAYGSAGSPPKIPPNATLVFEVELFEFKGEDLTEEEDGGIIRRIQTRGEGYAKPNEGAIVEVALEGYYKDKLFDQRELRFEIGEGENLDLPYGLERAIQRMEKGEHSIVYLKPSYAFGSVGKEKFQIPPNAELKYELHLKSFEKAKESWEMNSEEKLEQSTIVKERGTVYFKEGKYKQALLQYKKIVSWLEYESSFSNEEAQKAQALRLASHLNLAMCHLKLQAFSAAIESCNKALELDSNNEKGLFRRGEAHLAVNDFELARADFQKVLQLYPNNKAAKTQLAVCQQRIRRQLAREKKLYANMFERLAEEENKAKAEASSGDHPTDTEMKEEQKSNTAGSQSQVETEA

AMPK and mTOR activity = assay: Western blot of AMPK and mTOR (S6K) activity in MCF-7 cells; format: cell-based, human; details: MCF-7, time- and dose-dependent
Source text: The increase in AMP/ATP ratio, in turn, is expected to activate AMPK, leading to the inhibition of the mTOR signaling pathway. Liu et al., Mol. Cancer Ther. 2012, 11, 1672-1682; Head et al., ACS Chem. Biol. 2017, 12, 174-182. The effect of RgA on AMPK and mTOR activity in MCF-7 cells was therefore determined.
For western blot analysis, cells were harvested and lysed by RIPA buffer plus protease inhibitor. Cell lysates or samples from pull-down experiment were subjected to SDS/PAGE and then transferred to a nitrocellulose membrane. Membranes were first blocked in 5% (wt/vol) BSA in Tris-buffered saline plus 0.1% Tween 20 (TBST) at room temperature for 30 min and incubated with primary antibodies at 4° C. for overnight. Membranes were then washed three times with TBST and incubated with secondary antibodies at room temperature for another 1 h. Membranes were washed with TBST three times again and incubated with ECL substrate for 1 min at room temperature. Pictures were captured using a GeneSys Image Station.

MCF-7 cells = assay: cell cycle analysis of MCF-7 cells; format: cell-based, human; details: MCF-7, 5 μM, 24 h
Experimental: as §1
MCF-7 cells were seeded at 5×10^5 cells/15 cm dish, allowed to recover overnight and subsequently treated with drugs or vehicle control for 24 h. Media was then collected and set aside. Cells were washed with PBS, trypsinized, combined with set aside media, pelleted at 500×g and then washed with 10 mL PBS followed by another 500×g spin. The pellet was resuspended in 0.5 mL PBS and added dropwise using a Pasteur pipette to 2 mL 75% ethanol in a 5 mL polystyrene tube being slowly agitated by a vortex. The cells were stored at 4° C. until staining. To do so, cells were pelleted at 500×g, resuspended in 5 mL PBS, rested for 60 seconds, pelleted again and washed by 5 mL PBS. The cell pellet was then resuspended in 0.5 mL staining solution (0.1% Triton-X-100, 0.2 mg/mL DNase free RNase A, and 0.02 mg/mL propidium iodide). Cells were allowed to stain for 30 min prior for analysis. Propidium iodide incorporation was measured using a FACSCalibur. The percentage of cells in each cell cycle stage was determined with FlowJo (v7.5.5) using a Watson analysis.

HCC1954 xenograft = assay: HCC1954 breast cancer xenograft in nude mice; format: in vivo
Experimental: Given that RgA inhibited multiple isoforms of GLUTs, including GLUT1, 3, and 4, it raised the question of whether animals could tolerate RgA. As breast cancer cell lines are more sensitive to RgA than other cell lines (FIG. 6A and Table 3), the anti-breast cancer activity of RgA in vivo was assessed. Two breast cancer cell lines were selected for the xenograft experiment-MCF-7, an ER+, HER2− line, and HCC1954, an ER−, HER2+ breast line. NSG mice bearing MCF-7 tumors were given daily vehicle or RgA at a dose of 2 mg/kg for […].
All animal studies were conducted in compliance with all relevant ethical regulations set forth by the Johns Hopkins University Animal Care and Use Committee (ACUC). Female mice aged 4-6 weeks and weighing 18-22 g were maintained in a pathogen-free facility at Johns Hopkins Medical Institutions and cared for according to National Institutes of Health guidelines and under a protocol approved by the Johns Hopkins University Animal Care Committee. For the xenograft experiment of MCF-7, 17β-estradiol pellets (0.72 mg per pellet, 60-day release, Innovative Research of America, FL) were implanted at 5 days prior to tumor cell injection. […] The tumor volume was measured periodically using a Vernier caliper and calculated according to the modified ellipsoid formula: tumor volume (mm^3)=(short axis)^2×(long axis)×π/6. […]

IC50 (A549): 189 nM
IC50 (PANC10.05): 119 nM
Ki (FKBP12): 1.5 nM
Ki (FKBP25): > 5000 nM
Ki (FKBP52): 32 ± 3 nM
Compound: CCC(C)C1C(=O)NCC(=O)N(C)CCC=CC(=O)OCC(C)(C)C(=O)C(=O)N2CCCCC2C(=O)OC(CCc2ccc(OC)c(OC)c2)c2cccc(c2)NC(=O)CCC(=O)N(C)C(CC(C)C)C(=O)NC(Cc2ccccc2)C(=O)N1C (stereo not drawn) [JW11-D2, Rapaglutin A]
AMPK activity (AMPK and mTOR activity): activated AMPK
mTOR activity (AMPK and mTOR activity): inhibited mTOR activity
decrease in cells in G2/M phase (MCF-7 cells): ~17%
decrease in cells in S phase (MCF-7 cells): approximately 7%
increase in G1 phase in comparison to control (MCF-7 cells): approximately 23%
tumor volume index on day 38 (HCC1954 xenograft; HCC1954 in nude mice, 2 mg/kg intraperitoneally daily, vehicle 26.14): 12.97
weight loss and signs of adverse effects (HCC1954 xenograft; HCC1954 xenograft mice, 2 mg/kg daily): no significant weight loss or any signs of adverse effects
